# Assay results reported in patent EP0745595A1, “3-(3-Aryloxyphenyl)-1-(substituted methyl)-s-triazine-2,4,6-oxo or thiotrione herbicidal agents” (American Cyanamid Company, priority 1995, dated 1996).
# Key:
# Format in all cases: in vivo
# CHENOPODIUM ALBUM, L. [1] = experiment: Postemergence herbicidal evaluation, CHEAL (Lambsquarters, Common)
# How it was run: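 Postemergence herbicidal activity on Chenopodium album was tested by spraying two-week-old seedlings grown in jiffy flats with compound in acetone/water (50/50) plus 0.5% TWEEN®20, using a 40 psi nozzle. Four to five weeks after treatment, stand, vigor, malformation, size, chlorosis and overall appearance were scored 0-9 relative to controls, with repeat tests averaged.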
# [2] = tested on: ECHINOCHLOA CRUS-GALLI, (L) BEAU; experiment: Postemergence herbicidal evaluation, ECHCG (Barnyardgrass); set-up: key to ECHCG rating / Herbicidal effect rating, ECHCG / ECHCG: 0-9 visual rating scale vs untreated control
# How it was run: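 Postemergence foliar spray at approximately 0.125–0.500 kg/ha onto two-week seedlings; greenhouse hold, then 0–9 visual injury rating after 4–5 weeks.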
# IPOMOEA SPP. = experiment: Postemergence herbicidal evaluation, IPOSS (Morningglory spp.)
# How it was run: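 In this greenhouse postemergence herbicide test on Ipomoea spp. (morningglory), compounds in 50/50 acetone/water with 0.5% TWEEN®20 were sprayed at 40 psi onto seedlings about two weeks old grown in jiffy flats. After four to five weeks, injury was scored on a 0-9 scale covering stand, vigor, malformation, size, chlorosis and overall appearance versus control, with repeat tests averaged.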
# GALIUM APARINE = experiment: Postemergence herbicidal evaluation, GALAP (Galium); set-up: key to GALAP rating / Herbicidal effect rating, GALAP / GALAP: 0-9 visual rating scale vs untreated control; settings: for GALAP, herbicide rating (0-9): rated four to five weeks after treatment, averaged
# How it was run: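 In this postemergence greenhouse test, two-week-old Galium aparine seedlings grown in jiffy flats received a 40 psi spray of compound in acetone/water (50/50) with 0.5% TWEEN®20 surfactant. After four to five weeks, stand, vigor, malformation, size, chlorosis and overall appearance were compared with untreated controls on a 0-9 scale, averaging multiple tests.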
# CHENOPODIUM ALBUM, L. [3] = experiment: Preemergence herbicidal evaluation, CHEAL (Lambsquarters, Common); settings: for CHEAL rating: four to five weeks after treatment
# How it was run: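 First, seeds in potting soil are sown atop soil in cups. Next, the surface is sprayed with test compound in aqueous acetone at roughly 0.125 to 0.50 kg per hectare. After four to five weeks of greenhouse care, each cup is scored 0-9 against a control.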
# [4] = tested on: TRITICUM AESTIVUM, CV. APOLLO; experiment: Postemergence herbicidal evaluation, TRZAWO (Wheat, Winter, CV. APOLLO)
# How it was run: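 This greenhouse postemergence test applied compounds to roughly two-week-old wheat seedlings grown in jiffy flats. The spray solution was 50/50 acetone/water with 0.5% TWEEN®20, a polyoxyethylene sorbitan monolaurate, sprayed from a nozzle run at 40 psi. After four to five weeks of standard greenhouse care, injury was scored from 0 to 9 by comparing stand, vigor, malformation, size, chlorosis and overall appearance with a control. Multiple tests were averaged.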
# [5] = tested on: AMBROSIA ARTEMISIIFOLIA, L.; experiment: Postemergence herbicidal evaluation, AMBEL (Ragweed, Common)
# How it was run: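 Postemergence herbicidal activity on AMBEL (common ragweed) was assessed on two-week-old seedlings grown in jiffy flats. Treatment solutions of 50/50 acetone/water with 0.5% TWEEN®20 surfactant were sprayed at 40 psi. After four to five weeks in the greenhouse, plants were scored 0-9 against a control for stand, vigor, malformation, size, chlorosis and overall appearance, with multiple tests averaged.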
# [6] = tested on: ORYZA SATIVA, L. TEBONNET; experiment: Rice tolerance to post-transplant applications under flooded paddy conditions, ORYSAT (Rice, Tebonnet); settings: post-transplant rice, rated three to four weeks after treatment;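 also: applied to flooded soil surface three days after transplanting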
# How it was run: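 Rated on a visual 0–9 scale against untreated plants 3–4 weeks after application, rice (cv. Tebonnet) tolerance was tested by applying compounds (approx. 0.5–0.063 kg/ha, acetone/water 50/50) to flooded soil three days post-transplant, water kept 1.5–3 cm deep.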
# ZEA MAYS L. = experiment: Postemergence herbicidal evaluation, ZEAMX (Corn, Field)
# How it was run: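 This greenhouse postemergence test treated corn plants about two weeks old. Compounds in a 50/50 acetone/water mixture with 0.5% TWEEN®20 were applied through a spray nozzle at 40 psi. After four to five weeks, injury was scored 0-9 against an untreated control, judging stand, vigor, malformation, size, chlorosis and overall appearance. Repeated tests were averaged.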
# CASSIA OBTUSIFOLIA, L. = experiment: Postemergence herbicidal evaluation, CASOB (Sicklepod); set-up: key to CASOB rating / Herbicidal effect rating, CASOB / CASOB: 0-9 visual rating scale vs untreated control; settings: for CASOB, herbicide rating (0-9): rated four to five weeks after treatment, averaged
# How it was run: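 Ratings (0-9) reflect visual stand, vigor, malformation, size and chlorosis compared with untreated plants, assessed 4-5 weeks after postemergence spraying. Treatment was applied to roughly two-week-old seedlings at about 0.125-0.500 kg/ha in acetone/water with 0.5% Tween 20; replicate tests were averaged.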
# [7] = tested on: ABUTILON THEOPHRASTI, MEDIC.; experiment: Postemergence herbicidal evaluation, ABUTH (Velvetleaf); settings: for ABUTH, herbicide rating (0-9): rated four to five weeks after treatment, averaged
# How it was run: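 This postemergence herbicide test used two-week-old velvetleaf seedlings grown in jiffy flats. Each compound was sprayed at 40 psi as a dispersion in 50/50 acetone/water with 0.5% TWEEN®20 surfactant. Plants then received routine greenhouse care. After four to five weeks, injury was scored visually on a 0-9 scale against a control, and replicate tests were averaged.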
compound,measurement,setting,value
"COC(=O)Cn1c(=O)n(C)c(=O)n(-c2cc(Oc3c(F)cc(C(F)(F)F)cc3Cl)ccc2Br)c1=O [Compound 2, Methyl 3-{2-bromo-5-[(2-chloro-α,α,α,6-tetrafluoro-p-tolyl)oxy]phenyl}tetrahydro-5-methyl-2,4,6-trioxo-s-triazine-1(2H)-acetate]","Herbicidal effect rating, CHEAL","CHENOPODIUM ALBUM, L. [1]; 0.063 kg/ha",8.8
same,"Herbicidal effect rating, CHEAL","CHENOPODIUM ALBUM, L. [1]; 0.125 kg/ha",8.7
same,"Herbicidal effect rating, CHEAL","CHENOPODIUM ALBUM, L. [1]; 0.250 kg/ha",8.5
same,"Herbicidal effect rating, CHEAL","CHENOPODIUM ALBUM, L. [1]; 0.500 kg/ha",8.5
same,"Herbicidal effect rating, ECHCG",[2]; 0.063 kg/ha,5.0
same,"Herbicidal effect rating, ECHCG",[2]; 0.125 kg/ha,6.7
same,"Herbicidal effect rating, ECHCG",[2]; 0.250 kg/ha,9.0
same,"Herbicidal effect rating, ECHCG",[2]; 0.500 kg/ha,9.0
same,"Herbicidal effect rating, IPOSS",IPOMOEA SPP.; 0.063 kg/ha,8.3
same,"Herbicidal effect rating, IPOSS",IPOMOEA SPP.; 0.125 kg/ha,8.7
same,"Herbicidal effect rating, IPOSS",IPOMOEA SPP.; 0.250 kg/ha,9.0
same,"Herbicidal effect rating, IPOSS",IPOMOEA SPP.; 0.500 kg/ha,9.0
same,"Herbicidal effect rating, GALAP",GALIUM APARINE; 0.063 kg/ha,9.0
same,"Herbicidal effect rating, GALAP",GALIUM APARINE; 0.125 kg/ha,9.0
same,"Herbicidal effect rating, GALAP",GALIUM APARINE; 0.250 kg/ha,9.0
same,"Herbicidal effect rating, GALAP",GALIUM APARINE; 0.500 kg/ha,9.0
same,"GALAP, herbicide rating (0-9)",GALIUM APARINE; Rate 0.125 kg/ha,9.0
same,"GALAP, herbicide rating (0-9)",GALIUM APARINE; Rate 0.250 kg/ha,9.0
same,"GALAP, herbicide rating (0-9)",GALIUM APARINE; Rate 0.500 kg/ha,9.0
same,CHEAL,"CHENOPODIUM ALBUM, L. [3]; Rate 0.063 kg/ha",9.0
same,CHEAL,"CHENOPODIUM ALBUM, L. [3]; Rate 0.125 kg/ha",9.0
same,CHEAL rating,"CHENOPODIUM ALBUM, L. [3]; Rate 0.125 kg/ha",9.0
same,CHEAL,"CHENOPODIUM ALBUM, L. [3]; Rate 0.250 kg/ha",9.0
same,CHEAL rating,"CHENOPODIUM ALBUM, L. [3]; Rate 0.250 kg/ha",9.0
same,CHEAL,"CHENOPODIUM ALBUM, L. [3]; Rate 0.500 kg/ha",9.0
same,CHEAL rating,"CHENOPODIUM ALBUM, L. [3]; Rate 0.500 kg/ha",9.0
same,"Herbicidal effect rating, TRZAWO",[4]; 0.063 kg/ha,7.0
same,"Herbicidal effect rating, TRZAWO",[4]; 0.125 kg/ha,7.5
same,"Herbicidal effect rating, TRZAWO",[4]; 0.250 kg/ha,8.0
same,"Herbicidal effect rating, TRZAWO",[4]; 0.500 kg/ha,8.5
same,"Herbicidal effect rating, AMBEL",[5]; 0.063 kg/ha,8.0
same,"Herbicidal effect rating, AMBEL",[5]; 0.125 kg/ha,7.3
same,"Herbicidal effect rating, AMBEL",[5]; 0.250 kg/ha,7.5
same,"Herbicidal effect rating, AMBEL",[5]; 0.500 kg/ha,8.0
same,ORYSAT herbicidal rating (rice tolerance),[6]; Rate 0.063 kg/ha,2.5
same,ORYSAT herbicidal rating (rice tolerance),[6]; Rate 0.125 kg/ha,4.0
same,ORYSAT herbicidal rating (rice tolerance),[6]; Rate 0.250 kg/ha,5.5
same,ORYSAT herbicidal rating (rice tolerance),[6]; Rate 0.500 kg/ha,6.7
same,"Herbicidal effect rating, ZEAMX",ZEA MAYS L.; 0.063 kg/ha,7.7
same,"Herbicidal effect rating, ZEAMX",ZEA MAYS L.; 0.125 kg/ha,8.4
same,"Herbicidal effect rating, ZEAMX",ZEA MAYS L.; 0.250 kg/ha,8.3
same,"Herbicidal effect rating, ZEAMX",ZEA MAYS L.; 0.500 kg/ha,8.3
same,"Herbicidal effect rating, CASOB","CASSIA OBTUSIFOLIA, L.; 0.063 kg/ha",9.0
same,"Herbicidal effect rating, CASOB","CASSIA OBTUSIFOLIA, L.; 0.125 kg/ha",9.0
same,"Herbicidal effect rating, CASOB","CASSIA OBTUSIFOLIA, L.; 0.250 kg/ha",9.0
same,"Herbicidal effect rating, CASOB","CASSIA OBTUSIFOLIA, L.; 0.500 kg/ha",9.0
same,"CASOB, herbicide rating (0-9)","CASSIA OBTUSIFOLIA, L.; Rate 0.125 kg/ha",9.0
same,"CASOB, herbicide rating (0-9)","CASSIA OBTUSIFOLIA, L.; Rate 0.250 kg/ha",9.0
same,"CASOB, herbicide rating (0-9)","CASSIA OBTUSIFOLIA, L.; Rate 0.500 kg/ha",9.0
same,"Herbicidal effect rating, ABUTH",[7]; 0.063 kg/ha,8.8
same,"Herbicidal effect rating, ABUTH",[7]; 0.125 kg/ha,9.0
same,"Herbicidal effect rating, ABUTH",[7]; 0.250 kg/ha,9.0
same,"Herbicidal effect rating, ABUTH",[7]; 0.500 kg/ha,9.0
same,"ABUTH, herbicide rating (0-9)",[7]; Rate 0.125 kg/ha,9.0
same,"ABUTH, herbicide rating (0-9)",[7]; Rate 0.250 kg/ha,9.0
same,"ABUTH, herbicide rating (0-9)",[7]; Rate 0.500 kg/ha,9.0
